The source of these data is patent publication US20220096650A1 (Glaxosmithkline Intellectual Property Development Limited, priority 2019, published 2022).

In assay [1] the test system is Dendritic cells co-cultured with BCMA ADC treated NCI-H929 cells. The assay is described as follows: IL-10 and IL-12p70 in co-culture supernatants (MSD kits). Type of assay: cell-based, human. As to the method: Day 7 iDCs were co-cultured with J6M0 ADC enhanced antigen binding protein treated NCI-H929 cells at 1:1 ratio for 24 hours on 96 well plates. All cells were counted at the initiation of the co-culture and diluted with X-Vivo-15 media to a concentration of 7.5×10^5 cells/mL. 7.5×10^4 cells/well (100 μl) each of iDCS and pre-treated NCI-H929 cells were combined in each well on a 96 well plate. Co-cultured cells were incubated 37° C./5% CO2 for 24 hours. A flow cytometry panel consisting of CD1a, CD11c, CD40, CD80, CD83, CD86, HLA-DR, & CD14 was used to assess fresh, FcR blocked Dendritic Cell differentiation and maturation on the FACS Canto II. […]
Data analysis was performed in Flow Jo v7.6.5 for the flow cytometry panel and used either CD11c+ or HLA-DR+ cell gating to distinguish the dendritic Cells from the tumor cells. […] Data for the secreted IL-10 and IL-12p70 from supernatants in the co-culture assays w analyzed in MSD Discovery Workbench v4.0.12.
FIGS. 3A and 3B: IL-10 decreased in the supernatants from co-cultured Dendritic cells from two healthy human donors and BCMA ADC treated NCI-H929 Multiple Myeloma cells. IL-10 was measured in (a) untreated (no BCMA ADC) Dendritic cells alone and (b-f) Dendritic cells that were co-cultured with (b) untreated (no BCMA ADC), (c) IgG Control (10 μg/mL), (d) 0.1, (e) 1 and (f) 10 μg/mL BCMA ADC treated (48 hours) NCI-H929 cells. […]

Assay [2] deals with NCI-H929 Multiple Myeloma cells. Put plainly: IL-10 in supernatants of NCI-H929 cells cultured alone. The following applies: 48 hours, 0.1, 1, 10 μg/mL. It counts as cell-based, human. As to the method:
Fresh, whole Human blood was obtained from three healthy donors from the Upper Providence Blood Donation Unit with syringes coated in liquid sodium heparin (Sagent 10 IU/mL final concentration). Monocytes were isolated from fresh, whole human blood using the RosetteSep Monocyte Enrichment kit (Cat. #15068) and were assessed for expression of cell surface CD14 (BD Bioscience Cat. #562698) using flow cytometry. Isolated Monocytes (1.5×10^6 cells/well) were cultured in 2 mLs of X-Vivo-15 Media supplemented with 1% autologous plasma, 50 ng/mL recombinant human GM-CSF (R&D, 215-GM-050) and 100 ng/mL recombinant human IL-4 (R&D, 204-IL-050) for 7 Days at 37° C./5% CO2. The cultures received a half media change at Day 3 or 4 while maintaining stimulation factor concentrations. NCI-H929 Multiple Myeloma cells were passaged for 2 passages from thaw at 37° C., 5% CO2, 90% humid air in RPMI-1640 supplemented with 10% FBS. Cells were plated at a density of 7.5×10^5 cells/ml in 2 mLs on 12 well plates. […]
FIG. 3C: IL-10 decreased with BCMA ADC treatment in supernatants from NCI-H929 Multiple Myeloma cells cultured alone. IL-10 was measured in Untreated (a), IgG Control (b), 0.1 (c), 1 (d), and 10 μg/mL BCMA ADC (e) treated (48 hours) NCI-H929 Multiple Myeloma cells.

A further assay has as its system CD4+ and CD8+ T cells. The assay is described as follows: T cell proliferation upon anti-CD3/anti-CD28 stimulation (CFSE). It counts as cell-based, human. The following applies: 96 hours; 3 donors. As to the method: Fresh normal peripheral blood isolated CD4+ or CD8+ T cells were received and counted using a Beckman Coulter ViCell then centrifuged at 330 g for 7 minutes. Cells were then stained with Molecular Probes Cell Trace CFSE (cat #C34554) proliferation dye (5-10 μM) in PBS/0.5% BSA. Cells were incubated for 5 minutes on ice prior to a further incubation for 5 minutes on ice in cold RPMI 1640/10% FBS. Any free dye was removed by two further cell centrifugations at 300 g for 5 minutes. Cells were resuspended in complete media RPMI 1640/10% FBS/IL-2 (2.8 ng/mL). Cells were then seeded (10^5 cells/100 μL volume/well) in a 96 well tissue culture plates pre-coated with anti-CD3 (1 μg/mL) and anti-CD28 (1 μg/mL). […] After the 4 day incubation, cell supernatant was harvested and frozen at minus 80° C. and the cells were collected for flow cytometry staining. Analyzed using a CANTO II flow cytometer with 488 nm excitation and emission filters appropriate for fluorescein (FITC) for Cell Trace CFSE. FIG. 4D) Effect of BCMA ADC on proliferation of CD4+ and CD8+ T cells. CD4+ and CD8+ T cells stimulated with anti-CD3 and anti-CD28 antibodies in the presence or absence of various concentrations of BCMA ADC. After 96 hours cell proliferation was analyzed by flow cytometry. Data represent mean±SD from 3 different donors.

For another assay, the system named is multiple myeloma. The assay is described as follows: Phase 1 clinical trial in relapsed and refractory multiple myeloma patients. Type of assay: in vivo, human. An excerpt:
Multiple myeloma (MM) is a disease that affects plasma cells and leads to devastating clinical features. MM is the second most common hematological malignancy and remains an incurable disease. Therefore, novel targeted therapies are in need.

Assay [3] in a line: Hallmarks of immunogenic cell death in vivo and in vitro (Example 7).

As to GSK2857916, in assay [1] (0.1, 1, 10 μg/mL BCMA ADC), the IL-10 production entry is reported as “significant inhibitory effect”. In addition, the IL-12p70 result in assay [1] (all conditions) was “below the detection limit”. Besides, in assay [2], the IL-10 in supernatants result is listed as “decreased”. The “proliferation of CD4+ and CD8+ T cells” value in the assay on CD4+ and CD8+ T cells is “does not appear to have direct effects”. The same substance yielded an overall response rate in the assay on multiple myeloma of 60%. In addition, in assay [3], the “hallmarks of ICD (cell surface calreticulin and other ER stress response proteins, secretion of HMGB1)” value is recorded as “induces hallmarks of ICD”.
